Data from BindingDB's records for doi:10.1021/jm00013a009 (Sandoz Pharma, 1995).

Experiment: Compound was evaluated for the binding affinity at 5- HT1A receptor

## N=C(N)NN=Cc1c[nH]c2ccc(O)cc12 [(2E)-2-[(5-hydroxy-1H-indol-3-yl)methylene]hydrazinecarboximidamide]
  Ki: 63 nM
